{
  "source": "patent US4244883A",
  "about": "“2a,2b-Dihomo-15-alkyl-PGF2β compounds” (The Upjohn Company, priority 1979, dated 1981)",
  "key": {"[1]": {"system": "gastric lesions", "assay": "Cytoprotective effects: inhibition of ethanol-induced gastric lesions (ulcers) in female rats", "format": "in vivo, rat", "details": "2 mg/kg oral; for inhibition at 2 mg/kg: Rattus norvegicus, female rats 205-220 g, 30 min before 1 ml ethanol (80%) orally, examined 1 h after ethanol, read-out: % Inhibition (percent reduction in the number of gastric lesions in the treated group as compared to the control group); for cytoprotective effect (in words): female rats, 80% ethanol-induced gastric lesions", "experimental": "Female rats of 205-220 g are deprived of food during the morning. At 1500 hrs, water is removed and the animals are placed in individual cages which prevent them from consuming hair or feces. The following morning, the prostaglandin analogs are administered orally at a fixed dose of 2 mg/kg in 1 ml of water containing 5% ethanol and 1% emulphor. Emulphor EL-620 is used. Thirty minutes later, 1 ml of ethanol (80%) is given orally to induce gastric lesions. One hour after ethanol administration, the animals are sacrificed with carbon dioxide, their stomachs disected out and opened along the greater curvature. Visual examination with a binocular magnifier is undertaken to determine the presence of necrotic ulcerations. The average number of ulcers per stomach is recorded. The control group of rats receiving only vehicle (ethanol 5%, emulphor 1% in water) prior to the administration of 80% ethanol is employed. From the number of ulcerations in control group animals, a percent inhibition is determined which is the percent reduction in the number of gastric lesions in the treated group as compared to the control group.\nFollowing the procedure of Example 1, 2a,2b-dihomo-15-epi-PGF2β, methyl ester is compared for gastrointestinal cytoprotective activity with 2a,2b-dihomo-15-epi-15-methyl-PGF2β, methyl ester."}, "[2]": {"system": "intestinal lesions", "details": "rat; pre-treatment; Robert, et al., Gastroenterology 69:1045 (1974); cited from earlier work"}},
  "data": [
    {"smiles": "CCCCC[C@@](C)(O)/C=C/[C@@H]1[C@@H](C/C=C\\CCCCCC(=O)OC)[C@H](O)C[C@H]1O", "note": "[2a,2b-dihomo-15-epi-15-methyl-PGF2β, methyl ester]", "values": [
      {"measurement": "inhibition at 2 mg/kg", "setting": "[1]", "result": 100, "unit": "%"},
      {"measurement": "cytoprotective effect (in words)", "setting": "[1]", "result": "totally cytoprotective"}
    ]},
    {"smiles": "CCCCC[C@](C)(O)/C=C/[C@@H]1[C@@H](C/C=C\\CCCCCC(=O)OC)[C@H](O)C[C@H]1O", "note": "[2a,2b-dihomo-15-methyl-PGF2β, methyl ester]", "values": [
      {"measurement": "inhibition at 2 mg/kg", "setting": "[1]", "result": 96, "unit": "%"},
      {"measurement": "cytoprotective effect (in words)", "setting": "[1]", "result": "virtually totally cytoprotective"}
    ]},
    {"smiles": "CCCCC[C@@H](O)/C=C/[C@@H]1[C@@H](C/C=C\\CCCCCC(=O)OC)[C@H](O)C[C@H]1O", "note": "[2a,2b-dihomo-15-epi-PGF2β, methyl ester]", "values": [
      {"measurement": "inhibition at 2 mg/kg", "setting": "[1]", "result": 2, "unit": "%"},
      {"measurement": "cytoprotective effect (in words)", "setting": "[1]", "result": "negligable cytoprotective effects"}
    ]},
    {"smiles": "CCCCC[C@H](O)/C=C/[C@H]1[C@H](O)CC(=O)[C@@H]1C/C=C\\CCCC(=O)O", "note": "[PGE2]", "values": [
      {"measurement": "effect on indomethacin-induced intestinal lesions (in words)", "setting": "[2]", "result": "effective in reducing indomethacin-inducedintestinal lesions"}
    ]},
    {"smiles": "CCCCC[C@H](O)/C=C/[C@@H]1[C@@H](C/C=C\\CCCCCC(=O)OC)[C@H](O)C[C@H]1O", "note": "[2a,2b-dihomo-PGF2β, methyl ester]", "values": [
      {"measurement": "inhibition at 2 mg/kg", "setting": "[1]", "result": 32, "unit": "%"},
      {"measurement": "cytoprotective effect (in words)", "setting": "[1]", "result": "only modest cytoprotective effects"}
    ]}
  ]
}
